Results as given in ChEMBL document CHEMBL1649369, “Novel 4-aryl-pyrido[1,2-c]pyrimidines with dual SSRI and 5-HT(1A) activity. part 3” (Eur J Med Chem, 2011).
Active and inactive are the calls of the source. The calls are words filed in the database; no cut-off is given here.

Target: T1, 5-hydroxytryptamine receptor 1A (Rattus norvegicus, UniProt P19327)
T1 sequence (P19327 whole entry): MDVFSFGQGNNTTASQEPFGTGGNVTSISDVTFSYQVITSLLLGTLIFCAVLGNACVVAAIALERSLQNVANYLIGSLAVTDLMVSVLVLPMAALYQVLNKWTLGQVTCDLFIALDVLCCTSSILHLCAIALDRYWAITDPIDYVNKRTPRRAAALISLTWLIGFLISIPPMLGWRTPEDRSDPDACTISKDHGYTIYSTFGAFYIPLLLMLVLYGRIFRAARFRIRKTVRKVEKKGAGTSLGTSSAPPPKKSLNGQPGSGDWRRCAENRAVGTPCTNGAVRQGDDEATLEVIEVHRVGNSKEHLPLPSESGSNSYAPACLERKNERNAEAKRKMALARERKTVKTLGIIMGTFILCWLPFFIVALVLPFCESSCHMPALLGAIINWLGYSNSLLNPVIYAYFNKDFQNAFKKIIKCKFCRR
Assay: Displacement of [3H]8-OH-DPAT from 5-HT1A receptor in rat hippocampus
Assay type: tissue-based

Structure (SMILES) | Ki
Cc1ccc(-c2c3n(c(=O)n(CCCCN4CCC(c5c[nH]c6ccccc56)CC4)c2=O)CCCC3)cc1 | 46.2 nM
Cc1ccccc1-c1c2n(c(=O)n(CCCCN3CCC(c4c(C)[nH]c5ccccc45)CC3)c1=O)CCCC2 | 642 nM
COc1ccc(-c2c3n(c(=O)n(CCCCN4CCC(c5c(C)[nH]c6ccccc56)CC4)c2=O)CCCC3)cc1 | 153 nM
COc1ccccc1-c1c2n(c(=O)n(CCCCN3CCC(c4c[nH]c5ccccc45)CC3)c1=O)CCCC2 | 19.9 nM

Target: Sodium-dependent serotonin transporter (Rattus norvegicus, UniProt P31652)
Assay: Displacement of [3H]citalopram from SERT in rat cerebral cortex by liquid scintillation counting
Assay type: tissue-based

Sodium-dependent serotonin transporter, sequence (P31652 whole entry): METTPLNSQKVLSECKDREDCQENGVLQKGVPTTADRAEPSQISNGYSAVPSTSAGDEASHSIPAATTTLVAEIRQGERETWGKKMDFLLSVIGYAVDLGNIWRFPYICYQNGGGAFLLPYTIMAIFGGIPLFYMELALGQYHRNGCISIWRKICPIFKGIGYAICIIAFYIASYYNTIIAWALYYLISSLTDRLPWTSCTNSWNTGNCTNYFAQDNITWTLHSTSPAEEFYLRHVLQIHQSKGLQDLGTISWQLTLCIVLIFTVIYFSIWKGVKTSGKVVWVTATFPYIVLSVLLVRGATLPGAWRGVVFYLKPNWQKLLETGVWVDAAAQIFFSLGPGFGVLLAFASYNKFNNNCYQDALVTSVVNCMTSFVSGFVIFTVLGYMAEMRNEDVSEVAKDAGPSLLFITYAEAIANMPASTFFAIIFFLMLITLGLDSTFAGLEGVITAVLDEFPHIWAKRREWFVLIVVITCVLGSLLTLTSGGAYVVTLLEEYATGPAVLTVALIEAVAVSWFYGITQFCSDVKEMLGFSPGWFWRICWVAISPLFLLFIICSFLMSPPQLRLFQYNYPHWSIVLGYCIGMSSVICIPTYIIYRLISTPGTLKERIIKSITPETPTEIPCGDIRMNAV

Structure (SMILES) | Ki
Cc1ccc(-c2c3n(c(=O)n(CCCCN4CCC(c5c[nH]c6ccccc56)CC4)c2=O)CCCC3)cc1 | 42.4 nM
Cc1ccccc1-c1c2n(c(=O)n(CCCCN3CCC(c4c(C)[nH]c5ccccc45)CC3)c1=O)CCCC2 | 882 nM
COc1ccc(-c2c3n(c(=O)n(CCCCN4CCC(c5c(C)[nH]c6ccccc56)CC4)c2=O)CCCC3)cc1 | 184 nM
COc1ccccc1-c1c2n(c(=O)n(CCCCN3CCC(c4c[nH]c5ccccc45)CC3)c1=O)CCCC2 | 134 nM

Test system: Mus musculus
Assay: Effect on hypothermia in Swiss albino mouse assessed as change in rectal body temperature at 5 mg/kg, ip after 30 mins by inducible hypothermia test
Assay type: functional, organism-based
Parameters: dose 5 mg/kg

Structure (SMILES) | deltaT
Cc1ccc(-c2c3n(c(=O)n(CCCCN4CCC(c5c[nH]c6ccccc56)CC4)c2=O)CCCC3)cc1 | -0.5 °C
COc1ccccc1-c1c2n(c(=O)n(CCCCN3CCC(c4c[nH]c5ccccc45)CC3)c1=O)CCCC2 | -0.8 °C

Test system: Mus musculus
Assay: Effect on hypothermia in Swiss albino mouse assessed as change in rectal body temperature at 5 mg/kg, ip after 60 mins by inducible hypothermia test
Assay type: functional, organism-based
Parameters: dose 5 mg/kg

Structure (SMILES) | deltaT
Cc1ccc(-c2c3n(c(=O)n(CCCCN4CCC(c5c[nH]c6ccccc56)CC4)c2=O)CCCC3)cc1 | -0.4 °C
COc1ccccc1-c1c2n(c(=O)n(CCCCN3CCC(c4c[nH]c5ccccc45)CC3)c1=O)CCCC2 | -0.5 °C

Test system: Mus musculus
Assay: Effect on hypothermia in Swiss albino mouse assessed as change in rectal body temperature at 5 mg/kg, ip after 90 mins by inducible hypothermia test
Assay type: functional, organism-based
Parameters: dose 5 mg/kg

Structure (SMILES) | deltaT
Cc1ccc(-c2c3n(c(=O)n(CCCCN4CCC(c5c[nH]c6ccccc56)CC4)c2=O)CCCC3)cc1 | -0.3 °C
COc1ccccc1-c1c2n(c(=O)n(CCCCN3CCC(c4c[nH]c5ccccc45)CC3)c1=O)CCCC2 | -0.3 °C

Test system: Mus musculus
Assay: Effect on hypothermia in Swiss albino mouse assessed as change in rectal body temperature at 5 mg/kg, ip after 120 mins by inducible hypothermia test
Assay type: functional, organism-based
Parameters: dose 5 mg/kg

Structure (SMILES) | deltaT
Cc1ccc(-c2c3n(c(=O)n(CCCCN4CCC(c5c[nH]c6ccccc56)CC4)c2=O)CCCC3)cc1 | -0.2 °C
COc1ccccc1-c1c2n(c(=O)n(CCCCN3CCC(c4c[nH]c5ccccc45)CC3)c1=O)CCCC2 | -0.2 °C

Test system: Mus musculus
Assay: Effect on hypothermia in Swiss albino mouse assessed as change in rectal body temperature at 10 mg/kg, ip after 30 mins by inducible hypothermia test
Assay type: functional, organism-based
Parameters: dose 10 mg/kg

Structure (SMILES) | deltaT
Cc1ccc(-c2c3n(c(=O)n(CCCCN4CCC(c5c[nH]c6ccccc56)CC4)c2=O)CCCC3)cc1 | -0.6 °C
COc1ccccc1-c1c2n(c(=O)n(CCCCN3CCC(c4c[nH]c5ccccc45)CC3)c1=O)CCCC2 | -0.9 °C

Test system: Mus musculus
Assay: Effect on hypothermia in Swiss albino mouse assessed as change in rectal body temperature at 10 mg/kg, ip after 60 mins by inducible hypothermia test
Assay type: functional, organism-based
Parameters: dose 10 mg/kg

Structure (SMILES) | deltaT
Cc1ccc(-c2c3n(c(=O)n(CCCCN4CCC(c5c[nH]c6ccccc56)CC4)c2=O)CCCC3)cc1 | -0.3 °C
COc1ccccc1-c1c2n(c(=O)n(CCCCN3CCC(c4c[nH]c5ccccc45)CC3)c1=O)CCCC2 | -0.5 °C

Test system: Mus musculus
Assay: Effect on hypothermia in Swiss albino mouse assessed as change in rectal body temperature at 10 mg/kg, ip after 90 mins by inducible hypothermia test
Assay type: functional, organism-based
Parameters: dose 10 mg/kg

Structure (SMILES) | deltaT
Cc1ccc(-c2c3n(c(=O)n(CCCCN4CCC(c5c[nH]c6ccccc56)CC4)c2=O)CCCC3)cc1 | -0.2 °C
COc1ccccc1-c1c2n(c(=O)n(CCCCN3CCC(c4c[nH]c5ccccc45)CC3)c1=O)CCCC2 | -0.3 °C

Test system: Mus musculus
Assay: Effect on hypothermia in Swiss albino mouse assessed as change in rectal body temperature at 10 mg/kg, ip after 120 mins by inducible hypothermia test
Assay type: functional, organism-based
Parameters: dose 10 mg/kg

Structure (SMILES) | deltaT
Cc1ccc(-c2c3n(c(=O)n(CCCCN4CCC(c5c[nH]c6ccccc56)CC4)c2=O)CCCC3)cc1 | -0.1 °C
COc1ccccc1-c1c2n(c(=O)n(CCCCN3CCC(c4c[nH]c5ccccc45)CC3)c1=O)CCCC2 | -0.2 °C

Test system: Mus musculus
Assay: Effect on hypothermia in Swiss albino mouse assessed as change in rectal body temperature at 20 mg/kg, ip after 30 mins by inducible hypothermia test
Assay type: functional, organism-based
Parameters: dose 20 mg/kg

Structure (SMILES) | deltaT
Cc1ccc(-c2c3n(c(=O)n(CCCCN4CCC(c5c[nH]c6ccccc56)CC4)c2=O)CCCC3)cc1 | -1.3 °C
COc1ccccc1-c1c2n(c(=O)n(CCCCN3CCC(c4c[nH]c5ccccc45)CC3)c1=O)CCCC2 | -0.7 °C

Test system: Mus musculus
Assay: Effect on hypothermia in Swiss albino mouse assessed as change in rectal body temperature at 20 mg/kg, ip after 60 mins by inducible hypothermia test
Assay type: functional, organism-based
Parameters: dose 20 mg/kg

Structure (SMILES) | deltaT
Cc1ccc(-c2c3n(c(=O)n(CCCCN4CCC(c5c[nH]c6ccccc56)CC4)c2=O)CCCC3)cc1 | -0.9 °C
COc1ccccc1-c1c2n(c(=O)n(CCCCN3CCC(c4c[nH]c5ccccc45)CC3)c1=O)CCCC2 | -0.5 °C

Test system: Mus musculus
Assay: Effect on hypothermia in Swiss albino mouse assessed as change in rectal body temperature at 20 mg/kg, ip after 90 mins by inducible hypothermia test
Assay type: functional, organism-based
Parameters: dose 20 mg/kg

Structure (SMILES) | deltaT
Cc1ccc(-c2c3n(c(=O)n(CCCCN4CCC(c5c[nH]c6ccccc56)CC4)c2=O)CCCC3)cc1 | -0.4 °C
COc1ccccc1-c1c2n(c(=O)n(CCCCN3CCC(c4c[nH]c5ccccc45)CC3)c1=O)CCCC2 | -0.2 °C

Test system: Mus musculus
Assay: Effect on hypothermia in Swiss albino mouse assessed as change in rectal body temperature at 20 mg/kg, ip after 120 mins by inducible hypothermia test
Assay type: functional, organism-based
Parameters: dose 20 mg/kg

Structure (SMILES) | deltaT
Cc1ccc(-c2c3n(c(=O)n(CCCCN4CCC(c5c[nH]c6ccccc56)CC4)c2=O)CCCC3)cc1 | -0.3 °C
COc1ccccc1-c1c2n(c(=O)n(CCCCN3CCC(c4c[nH]c5ccccc45)CC3)c1=O)CCCC2 | 0 °C

Test system: Mus musculus
Assay: Effect on hypothermia in Swiss albino mouse assessed as change in rectal body temperature at 20 mg/kg, ip dosed 15 mins after 0.1 mg/kg, sc WAY 100635 challenge measured after 30 mins by inducible hypothermia test
Assay type: functional, organism-based

Structure (SMILES) | deltaT
Cc1ccc(-c2c3n(c(=O)n(CCCCN4CCC(c5c[nH]c6ccccc56)CC4)c2=O)CCCC3)cc1 | -0.4 °C
COc1ccccc1-c1c2n(c(=O)n(CCCCN3CCC(c4c[nH]c5ccccc45)CC3)c1=O)CCCC2 | -0.3 °C

Test system: Mus musculus
Assay: Effect on hypothermia in Swiss albino mouse assessed as change in rectal body temperature at 20 mg/kg, ip dosed 15 mins after 0.1 mg/kg, sc WAY 100635 challenge measured after 60 mins by inducible hypothermia test
Assay type: functional, organism-based

Structure (SMILES) | deltaT
Cc1ccc(-c2c3n(c(=O)n(CCCCN4CCC(c5c[nH]c6ccccc56)CC4)c2=O)CCCC3)cc1 | -0.2 °C
COc1ccccc1-c1c2n(c(=O)n(CCCCN3CCC(c4c[nH]c5ccccc45)CC3)c1=O)CCCC2 | -0.1 °C

Test system: Mus musculus
Assay: Antidepressant activity in Swiss albino mouse assessed as total immobility time at 10 mg/kg, ip administered 30 mins before test measured 6 mins test session after 2 mins habituation period by forced swimming test
Assay type: functional, organism-based
Parameters: dose 10 mg/kg

Structure (SMILES) | Activity
Cc1ccc(-c2c3n(c(=O)n(CCCCN4CCC(c5c[nH]c6ccccc56)CC4)c2=O)CCCC3)cc1 | inactive

Test system: Mus musculus
Assay: Antidepressant activity in Swiss albino mouse assessed as total immobility time at 20 mg/kg, ip administered 30 mins before test measured 6 mins test session after 2 mins habituation period by forced swimming test
Assay type: functional, organism-based
Parameters: dose 20 mg/kg

Structure (SMILES) | Activity
Cc1ccc(-c2c3n(c(=O)n(CCCCN4CCC(c5c[nH]c6ccccc56)CC4)c2=O)CCCC3)cc1 | inactive
